Inconclusive results and toxic doses are left out.

12 compounds from PubChem BioAssay AID256 (DTP/NCI, 2004) can be followed below.

The test system of the test is CD2F1 mice, L1210 leukemia ip, survival T/C. Put plainly: NCI In Vivo Anticancer Drug Screen. Data for tumor model L1210 Leukemia (intraperitoneal) in CD2F1 (CDF1) mice. To be noted: higher = longer survival. An outline of the steps:
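Implant tumor; dose compound or vehicle; measure endpoint in both groups; report treated divided by control.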

The mark [1] stands for this setting: endpoint: mean survival time, dose: 100.0 mg/kg/injection, schedule: Q04DX003 (ip), vehicle: saline with Tween-80.
Setting [2] is: endpoint: mean survival time, dose: 200.0 mg/kg/injection, schedule: Q04DX003 (ip), vehicle: saline with Tween-80.
Where [3] appears, read: endpoint: mean survival time, dose: 100.0 mg/kg/injection, schedule: Q01DX001 (ip), vehicle: saline with Tween-80.
[4] abbreviates: endpoint: mean survival time, dose: 200.0 mg/kg/injection, schedule: Q01DX001 (ip), vehicle: saline with Tween-80.
The mark [5] stands for this setting: endpoint: mean survival time, dose: 400.0 mg/kg/injection, schedule: Q01DX001 (ip), vehicle: saline with Tween-80.
[6] abbreviates: endpoint: mean survival time, dose: 50.0 mg/kg/injection, schedule: Q01DX009 (ip), vehicle: saline with Tween-80.
[7] abbreviates: endpoint: mean survival time, dose: 100.0 mg/kg/injection, schedule: Q01DX009 (ip), vehicle: saline with Tween-80.

Regarding `Cc1cc2nc(NN)[nH]c2cc1C`, the T/C was 98 % of control under setting [1]; 98 % of control under setting [2]; 114 % of control (endpoint: mean survival time, dose: 400.0 mg/kg/injection, schedule: Q04DX003 (ip), vehicle: saline with Tween-80).

In the case of `CC(=O)OC(C)CC(C)(C)OC(C)=O` (stereo not drawn), the T/C under setting [3] was 95 % of control, the T/C under setting [4] is 92 % of control and the T/C under setting [5] was 103 % of control.

For `Cc1cccc(/C=N/OCCC(C)C)n1`, the T/C runs as follows: under setting [6], 102 % of control; under setting [7], 96 % of control; under setting [1], 93 % of control; (endpoint: mean survival time, dose: 200.0 mg/kg/injection, schedule: Q01DX009 (ip), vehicle: saline with Tween-80) 102 % of control; under setting [2], 89 % of control.

`O=CO.[Tl]`: the T/C by setting is: (endpoint: mean survival time, dose: 5.0 mg/kg/injection, schedule: Q01DX001 (ip), vehicle: saline) 104 % of control; (endpoint: mean survival time, dose: 10.0 mg/kg/injection, schedule: Q01DX001 (ip), vehicle: saline) 98 % of control; (endpoint: mean survival time, dose: 20.0 mg/kg/injection, schedule: Q01DX001 (ip), vehicle: saline) 95 % of control; (endpoint: mean survival time, dose: 40.0 mg/kg/injection, schedule: Q01DX001 (ip), vehicle: saline) 98 % of control; (endpoint: mean survival time, dose: 80.0 mg/kg/injection, schedule: Q01DX001 (ip), vehicle: saline) 104 % of control.

Consider `Cc1noc2nccnc12`, for which the T/C is 103 % of control under setting [6], 101 % of control under setting [7] and 94 % of control under setting [1].

Consider `O=c1cc[nH]c(=S)[nH]1.[Pt]`, for which the T/C was 94 % of control (endpoint: mean survival time, dose: 3.13 mg/kg/injection, schedule: Q04DX003 (ip), vehicle: distilled water + Tween-80); 97 % of control (endpoint: mean survival time, dose: 6.25 mg/kg/injection, schedule: Q04DX003 (ip), vehicle: distilled water + Tween-80); 94 % of control (endpoint: mean survival time, dose: 12.5 mg/kg/injection, schedule: Q04DX003 (ip), vehicle: distilled water + Tween-80); 97 % of control (endpoint: mean survival time, dose: 25.0 mg/kg/injection, schedule: Q04DX003 (ip), vehicle: distilled water + Tween-80); 97 % of control (endpoint: mean survival time, dose: 50.0 mg/kg/injection, schedule: Q04DX003 (ip), vehicle: distilled water + Tween-80); 103 % of control (endpoint: mean survival time, dose: 100.0 mg/kg/injection, schedule: Q04DX003 (ip), vehicle: distilled water + Tween-80). For the setting “endpoint: mean survival time, dose: 200.0 mg/kg/injection, schedule: Q04DX003 (ip), vehicle: distilled water + Tween-80”, the T/C was 102 % of control.

`CC1CC[N-]CC1.CC1CC[N-]CC1.CC1CC[N-]CC1.CC1CC[N-]CC1.[Cl][Rh][Cl]`: the T/C by setting is: (endpoint: mean survival time, dose: 50.0 mg/kg/injection, schedule: Q01DX009 (ip), vehicle: saline sonified) 97 % of control; (endpoint: mean survival time, dose: 100.0 mg/kg/injection, schedule: Q01DX009 (ip), vehicle: saline sonified) 97 % of control; under setting [1], 111 % of control; under setting [2], 86 % of control.

Take `O=C(Nc1nccs1)Nc1cc([N+](=O)[O-])ccc1F`: the T/C by setting is: (endpoint: mean survival time, dose: 50.0 mg/kg/injection, schedule: Q01DX009 (ip), vehicle: Klucel (hydroxypropylcellulose) (HPC)) 104 % of control; (endpoint: mean survival time, dose: 100.0 mg/kg/injection, schedule: Q01DX009 (ip), vehicle: Klucel (hydroxypropylcellulose) (HPC)) 96 % of control; (endpoint: mean survival time, dose: 200.0 mg/kg/injection, schedule: Q01DX009 (ip), vehicle: Klucel (hydroxypropylcellulose) (HPC)) 93 % of control.

For `CN(C)N=Nc1cccc(NC(N)=O)c1`, the T/C (endpoint: mean survival time, dose: 19.75 mg/kg/injection, schedule: Q01DX009 (ip), vehicle: Klucel (hydroxypropylcellulose) (HPC)) is 114 % of control and the T/C (endpoint: mean survival time, dose: 79.0 mg/kg/injection, schedule: Q01DX009 (ip), vehicle: Klucel (hydroxypropylcellulose) (HPC)) is 87 % of control.

Turning to `CCCCCCCCCCCCCCCCCCC(C)c1ccccc1` (stereo not drawn), the T/C was 101 % of control under setting [3], 97 % of control under setting [4] and 101 % of control under setting [5].

In the case of `COc1c(O)cc2c(c1OC)-c1ccc(SC)c(=O)cc1C(NC(C)=O)CC2` (stereo not drawn), the T/C by setting is: (endpoint: median survival time, dose: 0.06 mg/kg/injection, schedule: Q01DX009 (ip), vehicle: Klucel (hydroxypropylcellulose) (HPC)) 110 % of control; (endpoint: median survival time, dose: 0.12 mg/kg/injection, schedule: Q01DX009 (ip), vehicle: Klucel (hydroxypropylcellulose) (HPC)) 110 % of control; (endpoint: median survival time, dose: 0.25 mg/kg/injection, schedule: Q01DX009 (ip), vehicle: Klucel (hydroxypropylcellulose) (HPC)) 110 % of control; (endpoint: median survival time, dose: 0.31 mg/kg/injection, schedule: Q01DX009 (ip), vehicle: DMSO) 113 % of control; (endpoint: median survival time, dose: 0.31 mg/kg/injection, schedule: Q01DX009 (ip), vehicle: Klucel (hydroxypropylcellulose) (HPC)) 118 % of control; (endpoint: median survival time, dose: 0.5 mg/kg/injection, schedule: Q01DX009 (ip), vehicle: Klucel (hydroxypropylcellulose) (HPC)) 121 % of control. Also, the T/C was 124 % of control (endpoint: median survival time, dose: 0.63 mg/kg/injection, schedule: Q01DX009 (ip), vehicle: DMSO); 105 % of control (endpoint: median survival time, dose: 1.0 mg/kg/injection, schedule: Q01DX009 (ip), vehicle: Klucel (hydroxypropylcellulose) (HPC)); 108 % of control (endpoint: median survival time, dose: 2.5 mg/kg/injection, schedule: Q01DX009 (oral), vehicle: DMSO); 164 % of control (endpoint: median survival time, dose: 5.0 mg/kg/injection, schedule: Q01DX005 (ip), vehicle: Klucel (hydroxypropylcellulose) (HPC)); 172 % of control (endpoint: median survival time, dose: 5.0 mg/kg/injection, schedule: Q01DX009 (ip), vehicle: DMSO); 107 % of control (endpoint: median survival time, dose: 5.0 mg/kg/injection, schedule: Q01DX009 (oral), vehicle: DMSO). Besides, the T/C is 165 % of control (endpoint: median survival time, dose: 10.0 mg/kg/injection, schedule: Q01DX009 (ip), vehicle: DMSO); 116 % of control (endpoint: median survival time, dose: 10.0 mg/kg/injection, schedule: Q01DX009 (oral), vehicle: DMSO); 158 % of control (endpoint: median survival time, dose: 20.0 mg/kg/injection, schedule: Q01DX005 (ip), vehicle: Klucel (hydroxypropylcellulose) (HPC)); 109 % of control (endpoint: median survival time, dose: 20.0 mg/kg/injection, schedule: Q01DX009 (oral), vehicle: DMSO); 107 % of control (endpoint: median survival time, dose: 40.0 mg/kg/injection, schedule: Q01DX009 (oral), vehicle: DMSO).

For the compound `COc1ccccc1NC(=O)Nc1ccc(Cl)cc1OC`, the T/C is 87 % of control (endpoint: mean survival time, dose: 100.0 mg/kg/injection, schedule: Q04DX002 (ip), vehicle: saline with Tween-80); 94 % of control (endpoint: mean survival time, dose: 200.0 mg/kg/injection, schedule: Q04DX002 (ip), vehicle: saline with Tween-80); 97 % of control (endpoint: mean survival time, dose: 400.0 mg/kg/injection, schedule: Q04DX002 (ip), vehicle: saline with Tween-80).
